Experimental data reported in BindingDB's records for patent US10188615 (ACUCELA INC., 2019).

biological target: T1, Retinoid isomerohydrolase (Human, UniProt Q16518); test: In Vitro Isomerase Inhibition Assay
T1 sequence (Q16518 whole entry): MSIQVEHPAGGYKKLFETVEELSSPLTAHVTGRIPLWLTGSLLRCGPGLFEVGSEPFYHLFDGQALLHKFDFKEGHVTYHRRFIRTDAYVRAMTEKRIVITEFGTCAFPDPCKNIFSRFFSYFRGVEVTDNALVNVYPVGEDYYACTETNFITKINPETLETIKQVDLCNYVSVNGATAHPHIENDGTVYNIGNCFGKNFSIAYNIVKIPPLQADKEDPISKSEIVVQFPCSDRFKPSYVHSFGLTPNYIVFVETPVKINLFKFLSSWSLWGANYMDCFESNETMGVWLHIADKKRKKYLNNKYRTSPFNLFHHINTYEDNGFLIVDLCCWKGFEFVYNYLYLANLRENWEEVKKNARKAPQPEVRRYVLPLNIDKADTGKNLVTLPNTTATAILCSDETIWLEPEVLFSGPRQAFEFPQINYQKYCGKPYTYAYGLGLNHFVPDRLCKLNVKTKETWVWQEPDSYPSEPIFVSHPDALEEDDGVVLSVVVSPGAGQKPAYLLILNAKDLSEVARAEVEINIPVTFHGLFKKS

Row | IC50 | Compound
1 | in the range around 55 nM | NCCCc1cccc(OC[C@H]2CCCC[C@H]2O)c1 (relative stereo) [US10188615, Example 147]
2 | in the range around 55 nM | NCCCc1cccc(OC[C@@H]2CCCC[C@H]2O)c1 (relative stereo) [US10188615, Example 148]
3 | in the range around 550 nM | NCCOc1cccc(OCc2ccccc2)c1 [US10188615, Example 8]
4 | in the range around 550 nM | NCCOc1cccc(OCC2(O)CCCCCC2)c1 [US10188615, Example 18]
5 | in the range around 55 nM | CCCC(CCC)COc1cccc(OCCN)c1 [US10188615, Example 25]
6 | in the range around 550 nM | NCCOc1cccc(OCC2(O)CCCCC2)c1 [US10188615, Example 26]
7 | in the range around 550 nM | CCC(O)(CC)COc1cccc(OCCN)c1 [US10188615, Example 31]
8 | in the range around 55 nM | CCC(O)(CC)COc1cccc(CCCN)c1 [US10188615, Example 32]
9 | in the range around 550 nM | CC(C)CCOc1cccc(CCCN)c1 [US10188615, Example 33]
10 | in the range around 55 nM | CCC(CC)COc1cccc(OCCN)c1 [US10188615, Example 36]
11 | in the range around 55 nM | NCCC(O)c1cccc(OCc2ccccc2)c1 (configuration not stated) [US10188615, Example 37]
12 | in the range around 550 nM | COc1ccccc1COc1cccc(CCCN)c1 [US10188615, Example 38]
13 | in the range around 5500 nM | COCCOc1cccc(CCCN)c1 [US10188615, Example 40]
14 | in the range around 550 nM | COCCCCOc1cccc(CCCN)c1 [US10188615, Example 41]
15 | in the range around 5500 nM | NCCCc1cccc(OCCCCOCc2ccccc2)c1 [US10188615, Example 42]
16 | in the range around 550 nM | CCCCCOc1cccc(CCCN)c1 [US10188615, Example 44]

Row | IC50 | Compound
17 | in the range around 55 nM | CC(C)CCOc1cccc(OCCN)c1 [US10188615, Example 46]
18 | in the range around 55 nM | NCCOc1cccc(OCCc2ccccc2)c1 [US10188615, Example 47]
19 | in the range around 55 nM | CC[C@H](CN)[C@@H](O)c1cccc(OCC2CCCCC2)c1 [US10188615, Example 49]
20 | in the range around 550 nM | CCC(CC)COc1cccc(O[C@H](C)CN)c1 [US10188615, Example 50]
21 | in the range around 550 nM | CCCC(CCC)COc1cccc(O[C@H](C)CN)c1 [US10188615, Example 51]
22 | in the range around 550 nM | C[C@H](CN)Oc1cccc(OCC2CCCC2)c1 [US10188615, Example 52]
23 | in the range around 550 nM | C[C@H](CN)Oc1cccc(OCC2CCCCC2)c1 [US10188615, Example 53]
24 | in the range around 55 nM | NCCC(O)c1cccc(OCCc2ccccc2)c1 (configuration not stated) [US10188615, Example 54]
25 | in the range around 550 nM | NCCOc1cccc(OCC2CC2)c1 [US10188615, Example 57]
26 | in the range around 550 nM | NCCOc1cccc(OCC2CCC2)c1 [US10188615, Example 58]
27 | in the range around 550 nM | NCCCc1cccc(OCc2ccccc2)c1 [US10188615, Example 59]
28 | in the range around 550 nM | NCCCc1cccc(OCC2CC2)c1 [US10188615, Example 60]
29 | in the range around 550 nM | NCCCc1cccc(OCC2CCC2)c1 [US10188615, Example 61]
30 | in the range around 550 nM | CCC(CC)COc1cccc(O[C@@H](C)CN)c1 [US10188615, Example 62]
31 | in the range around 550 nM | CCCC(CCC)COc1cccc(O[C@@H](C)CN)c1 [US10188615, Example 63]
32 | in the range around 550 nM | C[C@@H](CN)Oc1cccc(OCC2CCCC2)c1 [US10188615, Example 64]
